Laboratory results reported in patent US5231091A, “Bis-arylphosphate ester antagonists of platelet activating factor” (priority 1992, dated 1993).
Where a name gives a salt, the structure may show the parent alone.

What was measured:
LPS induced hypotension = test: Endotoxin (LPS) induced hypotension in rats; assay type: in vivo, rat (male Wistar); details: anesthetized rats; 10 ug/kg intraarterially 5 minutes after LPS 15 mg/kg I.V.
Method: Bacterial cell wall lipopolysaccharide from E. coli strain 0111:B4 (Sigma #L-2630) was dissolved in saline at a concentration of 3.75 mg/ml and administered to rats at 15 mg/kg I.V. Test compounds were dissolved in saline at 1 mg/ml, diluted to 10 ug/ml, and injected intraarterially at 1 ml/kg (10 ug/kg). Male wistar strain rats were obtained from Charles River Labs and maintained according to ALAC standards. They were anesthetized with 30 mg/kg pentobarbital ip with supplementation as needed. The throat was opened, the left carotid artery was cannulated with PE-10 tubing and the trachea cannulated with 0.100 O.D. tubing. Ventilation was maintained by a Harvard Apparatus small animal pump at a rate sufficient to nearly abolish spontaneous respiration.

LPS induced gut leakage = test: Endotoxin induced hemorragic lesions / LPS induced gut leakage in rats; assay type: in vivo, rat (male Wistar); details: for % of control leakage (K), IV LPS induced gut leakage: ± SEM; for protection against LPS induced gut damage: IV LPS
Source text: One of the main sites of LPS induced pathology in the rat and guinea pig is the gut, particularly the duodenum, small intestine and cecum. After LPS exposure hemorragic lesions develop within a few minutes and can involve most of the lumenal surface. The extent of these pathologies can be quantitated histologically or by measuring the amount of plasma proteins that have leaked into the lumen. The second method is much faster and can detect damage in the junctions between capillary or intestinal epithelial cells before gross lesions have developed. Hot tags have shown plasma leakage after LPS challenge using radiolabeled albumin as the probe. In our assay we have chosen to use a non-radioactive tagging method in which plasma albumin is labeled with Evan's blue dye and the lumenal leakage is determined spectrophotometricly.
Evan's blue dye: Sigma e-2129, made as a 1% w/v solution in saline which was filtered and kept refrigerated.
For each experiment fresh 3-[[3-[[hydroxy[2-methoxy-3-(tetradecyloxy)phenoxy]phosphinyl]oxy]phenyl]- methyl]-5-methyl-thiazolium, hydroxide, inner salt was sonicated into saline.
LPS solutions were made fresh for each experiment.
Male Wistar rats, obtained from Charles River, weighing 160-225 gm were maintained in accordance with ALAC standards for at least one week before use.
Food was withheld from the animals for 18 hours before the experiment to clear the intestine. The rats were dosed with 3-[[3-[[hydroxy[2-methoxy-3-(tetradecyloxy)phenoxy]phosphinyl]oxy]phenyl]methyl]-5-methyl-thiazolium, hydroxide, inner salt or saline ip, 4 ml/kg, 1/2 hour before challenge with 25 or 50 mg/kg LPS in the 1% dye at 10 ml/kg. One hour after the LPS insult the animals were sacrificed and the duodenum and initial 6-7 cm of the jejunum isolated. This segment was lavaged with 2 ml of normal saline with the fluid flowing into polyethylene tubes. The lavageate frequently contained mucous and in order to free the stained albumin the samples were sonicated vigorously and then centrifuged to clarify the fluid. The amount of dye was determined spectrophotometrically, using a Vmax microtiter plate reader using the end point mode at […].

## CCCCCCCCCCCCCCOc1cccc(OP(=O)([O-])Oc2cccc(C[n+]3csc(C)c3)c2)c1OC [3-[[3-[[Hydroxy[2-methoxy-3-(tetradecyloxy)phenoxy]-phosphinyl]oxy]phenyl]methyl]-5-methyl-thiazolium, hydroxide, inner salt]
LPS induced hypotension
  % reversal of LPS induced hypotension (fall in mean arterial pressure): 84%
LPS induced gut leakage; 0.125 mg/kg IP, Experiment 1
  % of control leakage (K), IV LPS induced gut leakage: 24 ± 15%
LPS induced gut leakage; 0.125 mg/kg IP, Experiment 2
  % of control leakage (K), IV LPS induced gut leakage: 107 ± 27%
LPS induced gut leakage; 0.25 mg/kg IP, Experiment 1
  % of control leakage (K), IV LPS induced gut leakage: 36 ± 23%
LPS induced gut leakage; 0.25 mg/kg IP, Experiment 2
  % of control leakage (K), IV LPS induced gut leakage: 65 ± 15%
LPS induced gut leakage; 0.5 mg/kg IP, Experiment 1
  % of control leakage (K), IV LPS induced gut leakage: 15 ± 10%
LPS induced gut leakage; 0.5 mg/kg IP, Experiment 2
  % of control leakage (K), IV LPS induced gut leakage: 16 ± 9%
LPS induced gut leakage; 1 mg/kg IP, Experiment 1
  % of control leakage (K), IV LPS induced gut leakage: 22 ± 15%
LPS induced gut leakage; 2 mg/kg IP, Experiment 1
  % of control leakage (K), IV LPS induced gut leakage: 10 ± 10%
LPS induced gut leakage; 2 mg/kg IP, Experiment 2
  % of control leakage (K), IV LPS induced gut leakage: 18 ± 24%
LPS induced gut leakage; 2 mg/kg IP, Experiment 3
  % of control leakage (K), IV LPS induced gut leakage: 27 ± 11%
LPS induced gut leakage; 20 mg/kg IP, Experiment 1
  % of control leakage (K), IV LPS induced gut leakage: 20 ± 2%
LPS induced gut leakage; 20 mg/kg IP, Experiment 2
  % of control leakage (K), IV LPS induced gut leakage: 19 ± 31%
LPS induced gut leakage; IP
  activity seen at doses as low as: 1/2
  protection against LPS induced gut damage: able to reduce or eliminate the damage produced by IV LPS
LPS induced gut leakage; IP one hour before challenge
  doses as low as (able to reduce or eliminate damage produced by IV LPS): 1/2
LPS induced gut leakage; IP, listed as 3-[[3-[[hydroxy[2-methoxy-3-(tetradecyloxy)phenoxy]-phosphinyl]oxy]phenyl]-methy
  protection against LPS induced gut damage: very potent protection against the end point of gut pathophysiology
LPS induced gut leakage; LPS challenge
  direct observation of the intestinal tract of LPS challenged protected animals: nearly normal appearing guts
LPS induced gut leakage; Rattus norvegicus, ip, read-out: doses as low as (prevents the gut manifestations of endotoxin shock), rats
  minimal effective dose: 0.25 mg/kg
LPS induced gut leakage; virtually all control animals had severe diarrhea
  diarrhea in LPS challenged treated animals: little or none
